The CheMixHub viscosity set
Where “and” joins values, the source holds several entries; their conditions need not be identical. Equal entries are not always repeated. ± gives the uncertainty stated by the source.

Assay: xn = mol fraction of the nth substance listed

Cc1cccc([N+](=O)[O-])c1 + Cc1ccccc1
303.15 K, 101.33 kPa
Conditions	viscosity [mPa·s]
x1 = 0.201	0.63 ± 0.014
x1 = 0.406	0.8 ± 0.014
x1 = 0.603	1 ± 0.014
x1 = 0.8	1.33 ± 0.015

Cc1cccc([N+](=O)[O-])c1 + Cc1ccccc1C
308.15 K, 101.33 kPa
Conditions	viscosity [mPa·s]
x2 = 0.1044	1.384 ± 0.009
x2 = 0.2068	1.211 ± 0.008
x2 = 0.2995	1.102 ± 0.007
x2 = 0.4028	1.01 ± 0.007
x2 = 0.5015	0.944 ± 0.006
x2 = 0.6123	0.867 ± 0.006
x2 = 0.7055	0.81 ± 0.005
x2 = 0.8268	0.742 ± 0.005
x2 = 0.9132	0.698 ± 0.005

Cc1ccccc1[N+](=O)[O-] + Cc1ccccc1C
308.15 K, 101.33 kPa
Conditions	viscosity [mPa·s]
x2 = 0.1023	1.548 ± 0.01
x2 = 0.2014	1.392 ± 0.009
x2 = 0.3006	1.262 ± 0.008
x2 = 0.4018	1.143 ± 0.007
x2 = 0.5041	1.027 ± 0.007
x2 = 0.6102	0.928 ± 0.006
x2 = 0.7028	0.85 ± 0.006
x2 = 0.8056	0.773 ± 0.005
x2 = 0.9008	0.709 ± 0.005

CCOC(=O)c1ccccc1 + Cc1ccccc1Cl
viscosity [mPa·s], 101 kPa
Conditions	303.15 K	313.15 K
x1 = 0.0262	0.899 ± 0.015	0.753 ± 0.013
x1 = 0.0785	0.926 ± 0.015	0.772 ± 0.013
x1 = 0.1304	0.952 ± 0.015	0.793 ± 0.013
x1 = 0.2081	0.996 ± 0.016	0.826 ± 0.014
x1 = 0.2594	1.022 ± 0.016	0.846 ± 0.014
x1 = 0.3343	1.067 ± 0.017	0.881 ± 0.014
x1 = 0.3851	1.099 ± 0.017	0.906 ± 0.015
x1 = 0.4613	1.149 ± 0.018	0.945 ± 0.015
x1 = 0.5356	1.208 ± 0.019	0.99 ± 0.016
x1 = 0.6108	1.274 ± 0.02	1.041 ± 0.017
x1 = 0.709	1.375 ± 0.021	1.12 ± 0.018
x1 = 0.8085	1.497 ± 0.023	1.215 ± 0.019
x1 = 0.9045	1.635 ± 0.025	1.323 ± 0.021

C1=CCCCC1 + ClC(Cl)(Cl)Cl
303.15 K, 101 kPa
Conditions	viscosity [mPa·s]
x1 = 0.1014	0.875 ± 0.011
x1 = 0.2018	0.839 ± 0.011
x1 = 0.3213	0.8 ± 0.01
x1 = 0.4018	0.775 ± 0.01
x1 = 0.5046	0.74 ± 0.01
x1 = 0.5562	0.722 ± 0.009
x1 = 0.6526	0.688 ± 0.009
x1 = 0.7514	0.653 ± 0.008
x1 = 0.9049	0.603 ± 0.008

CCCCCCCCCBr + ClC(Cl)(Cl)Cl
101 kPa
Conditions	viscosity [mPa·s]
297.75 K, x1 = 0.0486	0.9597 ± 0.021
297.75 K, x1 = 0.0978	1.013 ± 0.022
297.75 K, x1 = 0.1959	1.12 ± 0.024
297.75 K, x1 = 0.3924	1.327 ± 0.029
297.75 K, x1 = 0.5939	1.527 ± 0.033
297.75 K, x1 = 0.7974	1.744 ± 0.038
303.55 K, x1 = 0.0959	0.926 ± 0.02
303.55 K, x1 = 0.2498	1.086 ± 0.023
303.55 K, x1 = 0.3966	1.22 ± 0.026
303.55 K, x1 = 0.5928	1.381 ± 0.03
303.55 K, x1 = 0.7755	1.526 ± 0.033
313.65 K, x1 = 0.0515	0.7651 ± 0.017
313.65 K, x1 = 0.0985	0.8039 ± 0.017
313.65 K, x1 = 0.1952	0.8852 ± 0.019
313.65 K, x1 = 0.3592	1.028 ± 0.022
313.65 K, x1 = 0.5926	1.189 ± 0.026
313.65 K, x1 = 0.7767	1.301 ± 0.028

c1cscn1 + ClC(Cl)(Cl)Cl
298.15 K, 101 kPa
Conditions	viscosity [mPa·s]
x1 = 0.1198	0.9186 ± 0.024
x1 = 0.2066	0.9327 ± 0.025
x1 = 0.2139	0.933 ± 0.025
x1 = 0.2899	0.9459 ± 0.025
x1 = 0.3525	0.9561 ± 0.025
x1 = 0.4862	0.9809 ± 0.026
x1 = 0.592	0.994 ± 0.026
x1 = 0.689	1.007 ± 0.027
x1 = 0.7728	1.01 ± 0.027
x1 = 0.8194	1.011 ± 0.027
x1 = 0.8719	1.011 ± 0.027
x1 = 0.9315	1.006 ± 0.027

N#CCc1ccccc1 + ClC(Cl)C(Cl)Cl
Conditions	viscosity [mPa·s]
313.15 K, 101 kPa, x1 = 0.7131	1.645 ± 0.021

C1=CCCCC1 + ClC(Cl)Cl
303.15 K, 101 kPa
Conditions	viscosity [mPa·s]
x1 = 0.1005	0.62 ± 0.008
x1 = 0.2478	0.604 ± 0.008
x1 = 0.3282	0.595 ± 0.008
x1 = 0.4351	0.585 ± 0.008
x1 = 0.4917	0.581 ± 0.008
x1 = 0.629	0.575 ± 0.007
x1 = 0.7454	0.573 ± 0.007
x1 = 0.8452	0.571 ± 0.007

N#CCc1ccccc1 + ClC=C(Cl)Cl
Conditions	viscosity [mPa·s]
303.15 K, 101 kPa, x1 = 0.819	1.455 ± 0.019

N#CCc1ccccc1 + ClCCCl
101 kPa
Conditions	viscosity [mPa·s]
303.15 K, x1 = 0.9705	1.725 ± 0.023
313.15 K, x1 = 0.648	1.165 ± 0.016

NCC(=O)NCC(=O)O + O
viscosity
Conditions	293.15 K	298.15 K	303.15 K	308.15 K	313.15 K	318.15 K	323.15 K
100 kPa, x1 = 0.000887	–	0.9004 ± 0.019 mPa·s	–	0.7285 ± 0.015 mPa·s	0.6622 ± 0.014 mPa·s	0.6045 ± 0.013 mPa·s	–
100 kPa, x1 = 0.00175	–	0.907 ± 0.019 mPa·s	0.8135 ± 0.017 mPa·s	0.7349 ± 0.015 mPa·s	0.6683 ± 0.014 mPa·s	0.6105 ± 0.013 mPa·s	–
100 kPa, x1 = 0.002593	–	0.9129 ± 0.019 mPa·s	0.8194 ± 0.017 mPa·s	0.7408 ± 0.015 mPa·s	0.6742 ± 0.014 mPa·s	0.6162 ± 0.013 mPa·s	–
100 kPa, x1 = 0.003411	–	0.9185 ± 0.019 mPa·s	0.8251 ± 0.017 mPa·s	0.7465 ± 0.016 mPa·s	0.6797 ± 0.014 mPa·s	0.6216 ± 0.013 mPa·s	–
100 kPa, x1 = 0.004207	–	0.9239 ± 0.019 mPa·s	0.8307 ± 0.017 mPa·s	0.752 ± 0.016 mPa·s	0.685 ± 0.014 mPa·s	0.6269 ± 0.013 mPa·s	–
100 kPa, x1 = 0.004983	–	0.9292 ± 0.019 mPa·s	0.836 ± 0.017 mPa·s	0.7573 ± 0.016 mPa·s	0.6904 ± 0.014 mPa·s	0.6322 ± 0.013 mPa·s	–
100 kPa, x1 = 0.005739	–	0.9343 ± 0.019 mPa·s	0.8413 ± 0.017 mPa·s	0.7627 ± 0.016 mPa·s	0.6957 ± 0.015 mPa·s	0.6374 ± 0.013 mPa·s	–
100 kPa, x1 = 0.006476	–	0.9394 ± 0.02 mPa·s	0.8465 ± 0.018 mPa·s	0.7679 ± 0.016 mPa·s	0.7006 ± 0.015 mPa·s	0.6425 ± 0.013 mPa·s	–
101.3 kPa, x1 = 0.002	1.04 ± 0.06 mPa·s and 1.04 ± 0.04 mPa·s	–	0.82 ± 0.05 mPa·s and 0.82 ± 0.03 mPa·s	–	0.67 ± 0.04 mPa·s and 0.67 ± 0.03 mPa·s	–	0.56 ± 0.03 mPa·s and 0.56 ± 0.02 mPa·s
101.3 kPa, x1 = 0.004	1.08 ± 0.07 mPa·s and 1.08 ± 0.04 mPa·s	–	0.85 ± 0.05 mPa·s and 0.85 ± 0.03 mPa·s	–	0.69 ± 0.04 mPa·s and 0.69 ± 0.03 mPa·s	–	0.59 ± 0.04 mPa·s and 0.59 ± 0.02 mPa·s
101.3 kPa, x1 = 0.005	1.1 ± 0.07 mPa·s and 1.1 ± 0.04 mPa·s	–	0.87 ± 0.05 mPa·s and 0.87 ± 0.04 mPa·s	–	0.71 ± 0.04 mPa·s and 0.71 ± 0.03 mPa·s	–	0.6 ± 0.04 mPa·s and 0.6 ± 0.02 mPa·s
101.3 kPa, x1 = 0.007	1.14 ± 0.07 mPa·s and 1.14 ± 0.05 mPa·s	–	0.9 ± 0.05 mPa·s and 0.9 ± 0.04 mPa·s	–	0.74 ± 0.05 mPa·s and 0.74 ± 0.03 mPa·s	–	0.62 ± 0.04 mPa·s and 0.62 ± 0.03 mPa·s

O=[N+]([O-])[O-].[K+] + O
viscosity [mPa·s]
Conditions	x1 = 0.0009	x1 = 0.0018	x1 = 0.00893	x1 = 0.0177	x1 = 0.02	x1 = 0.02631	x1 = 0.03478	x1 = 0.0431	x1 = 0.05127
293.15 K, 101.3 kPa	0.999 ± 0.021	0.9967 ± 0.021	0.9784 ± 0.021	0.9678 ± 0.021	–	–	–	0.9855 ± 0.021	1.002 ± 0.021
298.15 K, 101.3 kPa	–	0.887 ± 0.019	0.875 ± 0.019	–	–	–	0.8802 ± 0.019	0.8927 ± 0.019	0.9095 ± 0.019
303.15 K, 101.3 kPa	0.7964 ± 0.017	0.7957 ± 0.017	0.7884 ± 0.017	0.7866 ± 0.017	–	0.791 ± 0.017	0.8004 ± 0.017	0.8138 ± 0.017	0.8319 ± 0.018
308.15 K, 101.3 kPa	0.7193 ± 0.015	0.7184 ± 0.015	0.7156 ± 0.015	0.7174 ± 0.015	–	0.7235 ± 0.015	0.7334 ± 0.015	–	0.7636 ± 0.016
318.15 K, 101.3 kPa	0.5964 ± 0.013	0.5967 ± 0.013	0.5993 ± 0.013	0.6038 ± 0.013	–	0.6128 ± 0.013	–	0.6376 ± 0.013	0.6543 ± 0.014
323.15 K, 101 kPa	–	–	–	–	0.565 ± 0.014	–	–	–	–

[Na+].[OH-] + O
Conditions	viscosity
293.15 K, 101.33 kPa, x2 = 0.67	96.16 ± 4.2 mPa·s
293.15 K, 101.33 kPa, x2 = 0.8	22.24 ± 0.93 mPa·s
293.15 K, 101.33 kPa, x2 = 0.83	18.37 ± 0.74 mPa·s
293.15 K, 101.33 kPa, x2 = 0.85	9.529 ± 0.39 mPa·s
293.15 K, 101.33 kPa, x2 = 0.86	8.225 ± 0.33 mPa·s
293.15 K, 101.33 kPa, x2 = 0.89	6.356 ± 0.25 mPa·s
293.15 K, 101.33 kPa, x2 = 0.9	4.63 ± 0.19 mPa·s
323.15 K, 101 kPa, x1 = 0.009	0.609 ± 0.018 mPa·s
323.15 K, 101 kPa, x1 = 0.026	0.745 ± 0.023 mPa·s
323.15 K, 101 kPa, x1 = 0.05	1.02 ± 0.03 mPa·s
323.15 K, 101 kPa, x1 = 0.1	1.88 ± 0.06 mPa·s and 3.28 ± 0.1 mPa·s
323.15 K, 101 kPa, x1 = 0.18	5.04 ± 0.15 mPa·s
323.15 K, 101 kPa, x1 = 0.22	7.88 ± 0.23 mPa·s
323.15 K, 101 kPa, x1 = 0.3	10.9 ± 0.32 mPa·s
